Results as given in patent publication US8058258B2, “Methods for cancer therapy and stem cell modulation” (Agency for Science, Technology and Research, priority 2006, dated 2011).

Experiments:
[1] = test system: caspase 9, and poly(ADP-ribose) polymerase (PARP); assay: Western blot of caspase and PARP cleavage; type: cell-based; conditions: 3-deazaneplanocin-treated cells (MCF-7, HCT116; 5 μM, 48 and 72 h)
Description: FIG. 3E depicts a Western blot analysis of the activation of caspases. MCF-7 and HCT16 cells were treated with 5 μM 3-deazaneplanocin (“DZNep”) for 48 and 72 h before analysis of whole-cell extracts. Activation of caspases and poly(ADP-ribose) polymerase (“PARP”) was detected after 3-deazaneplanocin treatment. β-Actin (“Actin”) was used as a loading control.
Cell pellets were first lysed in RadioImmuno Precipitation Assay (RIPA) buffer, consisting of an aqueous solution of 25 mM Tris-HCl pH 7.6, 150 mM NaCl, 1% Nonidet-P 40 (NP-40), 1% sodium deoxycholate and 0.1% sodium dodecylsulfate (SDS), before further sonicated using a tissue homogeniser to release all the proteins. Equal amounts of protein were separated on SDS-polyacrylamide gels and transferred to polyvinylidene difluoride (PVDF) membranes. The blots were probed with antibodies against: EED (07-368), SUZ12 (07-379), SUV39H1 (07-550), BMI1 (05-637), tri-methylated H3-K27 (07-449), tri-methylated H3-K9 (07-442) and Acetyl-Histone H3 (06-599), and were purchased from Upstate. EZH2 (AC22) and Histone H3 (3H1) were from Cell Signaling. Antibodies against DNA methyl-transferases DNMT1 and DNMT3B were purchased from Alexis Biochemicals. […]

[2] = test system: mRNA of EZH2, SUZ12 and EED; assay: RT-PCR of mRNA levels of PRC2 proteins; type: cell-based; conditions: HCT116 cells, after 3-deazaneplanocin treatment
Description: FIG. 1B depicts the analysis of the mRNA levels of the PRC2 proteins EZH2, SUZ12, and EED by reverse transcription (RT-PCR) before (-) and after (+)3-deazaneplanocin treatment. HCT116 cells were treated as in (a) and total RNA was isolated for RT-PCR analysis GAPDH served as a control. […] Accordingly, trimethylation of histone 3 at […] In contrast, histone H3 methylation at […] (H3-K9) was not affected by 3-deazaneplanocin treatment.

[3] = test system: PRC2 target genes TGFBI, KRT17, FBXO32, ANXA8, DLX2; assay: Real-time RT-PCR of representative PRC2 targets in MCF-7 cells; type: cell-based, human
Description: I: MCF-7 cells were untreated or treated with 3-deazaneplanocin (DZNep), 5-azacytidine (5-AzaC) or a combination of 5-azacytidine and trichostatin A (AZA+TSA), and RNA was isolated for gene expression analysis.
(§2) Cells were maintained in DMEM supplemented with 10% fetal bovine serum with glutamine, penicillin, and streptomycin. For drug treatment, cells were seeded the day before the drug treatment. Cells were treated with 5 μM 3-Deazaneplanocin A or 2 μM 5-aza-2′-deoxycytidine (5-AzaC; Sigma) for 72 hours and trichostatin A (TSA; Sigma) at 100 nM for 24 hours. For co-treatment of cells with 5-AzaC and TSA, 5-Aza was added for 48 hours and followed by TSA for 24 hours.
Total RNA was isolated from cell lines using Trizol (Invitrogen) and was converted to cDNA using an RNA Amplification kit (Ambion). […] Quantitative real-time PCR was performed on a PRISM 7900 sequenced detector (Applied Biosystems) using TaqMan probes (Applied Biosystems). Samples were normalized to the levels of 18S ribosomal RNA.
The array results were further confirmed by real-time RT-PCR for representative PRC2 targets.

[4] = test system: MCF-7 cells; assay: Microarray gene expression analysis (Illumina BeadChip) in MCF-7 cells; type: cell-based, human
Description: as §2
The Smartpool siRNA duplexes of selected PRC2 targets and the non-targeting control were purchased from Dharmacon (Lafayett, Colo.). […] Cells were transfected with 50 nM final concentration of siRNA duplexes using Lipofectamine 2000 (Invitrogen) following the manufacturer's instructions.
Total RNA was isolated from cell lines using Trizol (Invitrogen) and was converted to cDNA using an RNA Amplification kit (Ambion). The microarray hybridisation was performed using the Illumina Gene Expression BeadChip (Illumina) and data analysis was performed using GeneSpring software from Agilent Technologies.
The effects on gene expression were analysed using an Illumina Gene Expression BeadChip. […] To be inclusive for the subsequent analysis, all 1402 genes were considered to be potential PRC2 target genes.
To identify the PRC2 targets specifically repressed in breast cancer cells, the expression profiles of the 140 putative PRC2 target genes in MCF-7 cells and MCF10A cells were compared by gene clustering analysis (FIG. 4C).

[5] = test system: Suv39h1; assay: Western blot of Suv39h1 protein levels; type: cell-based, human; conditions: HCT116 or MCF-7 cells, 5 μM, 48 and 72 hours
Description: (§1) Cell lines used in these examples were purchased from the American Type Culture Collection (Manassas, Va.). Cells were maintained in DMEM supplemented with 10% fetal bovine serum with glutamine, penicillin, and streptomycin. For drug treatment, cells were seeded the day before the drug treatment. Cells were treated with 5 μM 3-Deazaneplanocin A or 2 μM 5-aza-2'-deoxycytidine (5-AzaC; Sigma) for 72 hours and trichostatin A (TSA; Sigma) at 100 nM for 24 hours. For co-treatment of cells with 5-AzaC and TSA, 5-Aza was added for 48 hours and followed by TSA for 24 hours. Cell pellets were first lysed in RadioImmuno Precipitation Assay (RIPA) buffer, consisting of an aqueous solution of 25 mM Tris-HCl pH 7.6, 150 mM NaCl, 1% Nonidet-P 40 (NP-40), 1% sodium deoxycholate and 0.1% sodium dodecylsulfate (SDS), before further sonicated using a tissue homogeniser to release all the proteins. Equal amounts of protein were separated on SDS-polyacrylamide gels and transferred to polyvinylidene difluoride (PVDF) membranes. The blots were probed with antibodies against: EED (07-368), SUZ12 (07-379), SUV39H1 (07-550), BMI1 (05-637), tri-methylated H3-K27 (07-449), tri-methylated H3-K9 (07-442) and Acetyl-Histone H3 (06-599), and were purchased from Upstate. EZH2 (AC22) and Histone H3 (3H1) were from Cell Signaling. […]

[6] = test system: histone H3 methylation at lysine 9 (H3-K9); assay: Western blot of histone H3 lysine 9 methylation; type: cell-based, human; conditions: HCT116 or MCF-7 cells, 5 μM, 48 and 72 hours
Description: as §1

Nc1nccc2c1ncn2C1C=C(CO)C(O)C1O (centres unmarked) [3-deazaneplanocin, 5-(4-amino-1H-imidazo[4,5-c]pyridin-1-yl)-3-(hydroxymethyl)-3-cyclopentene-1,2-diol]
cleavage of caspase 9, and poly(ADP-ribose) polymerase (PARP) [1]: easily detectable
mRNA levels of each of the PRC2 proteins (RT-PCR) [2]: remained unchanged
expression of ANXA8 and DLX2 (real-time RT-PCR) [3]: activated
induction of TGFBI, KRT17 and FBX032 (real-time RT-PCR) [3]: only induced
expression of the 47 PRC2 target genes repressed in MCF-7 relative to MCF10A [4]: re-expression
number of genes upregulated ≧2-fold ([4]; 72 h): 750 genes
Suv39h1 protein levels [5]: not affected
histone H3 methylation at lysine 9 (H3-K9) [6]: not affected
